From ChEMBL document CHEMBL1201862, “PubChem BioAssay data set” (2004)
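1) Cells in 96-well plates. 2) Compound, 48 h, 5 concentrations. 3) Linear interpolation between surrounding doses. 4) Unreached endpoint = highest concentration. Here, GI50 denotes the concentration required for 50% inhibition of growth.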 Active and inactive are the calls of the source. Rule as the data show it: active = GI50 up to about 1.1 µM and inactive = higher. Square brackets hold non-standard residues; d marks the D form. Peptide text beside a SMILES is read from it. * marks the point of attachment. ξ: configuration not given here. NMeN = CN[C@@H](CC(N)=O)C(=O)O; NMeV = CN[C@H](C(=O)O)C(C)C; ξNMeV = CNC(C(=O)O)C(C)C; Boc = CC(C)(C)OC(=O)*; ξNMeA = CNC(C)C(=O)O

What was measured:
Test in all cases: DTP human tumour cell line panel, 48 h
HCC 2998 = tested on: HCC 2998
HCT-15 = tested on: HCT-15
HT-29 = tested on: HT-29
Hs-578T = tested on: Hs-578T
LOX IMVI = tested on: LOX IMVI
MOLT-4 = tested on: MOLT-4
NCI-H226 = tested on: NCI-H226
NCI-H23 = tested on: NCI-H23
NCI-H522 = tested on: NCI-H522
PC-3 = tested on: PC-3
SK-MEL-2 = tested on: SK-MEL-2
SK-MEL-5 = tested on: SK-MEL-5
SK-OV-3 = tested on: SK-OV-3
SN12C = tested on: SN12C
SNB-19 = tested on: SNB-19
SNB-75 = tested on: SNB-75
TK-10 = tested on: TK-10
UO-31 = tested on: UO-31
HOP-62 = tested on: HOP-62
A498 = tested on: A498

| SMILES | GI50 (HCC 2998) | GI50 (HCT-15) [µM] | GI50 (HT-29) | GI50 (Hs-578T) | GI50 (LOX IMVI) | GI50 (MOLT-4) | GI50 (NCI-H226) | GI50 (NCI-H23) | GI50 (NCI-H522) | GI50 (PC-3) | GI50 (SK-MEL-2) | GI50 (SK-MEL-5) | GI50 (SK-OV-3) | GI50 (SN12C) | GI50 (SNB-19) | GI50 (SNB-75) | GI50 (TK-10) | GI50 (UO-31) | GI50 (HOP-62) | GI50 (A498) |
| --- | --- | --- | --- | --- | --- | --- | --- | --- | --- | --- | --- | --- | --- | --- | --- | --- | --- | --- | --- | --- |
| CC1(C(=O)O)CCC2(C)CCC3(C)C(=CC(=O)C4C5(C)CCC(O)C(C)(C)C5CCC43C)C2C1 (centres undefined) | 23.1 µM (inactive) | 34.8 | 20.2 µM (inactive) | 28.6 µM (inactive) | 22.6 µM (inactive) | 36.2 µM (inactive) | 25.8 µM (inactive) | 21.2 µM (inactive) | 22.7 µM (inactive) | 36.1 µM (inactive) | 21.8 µM (inactive) | 24.4 µM (inactive) | 43.4 µM (inactive) | 41.8 µM (inactive) | 20.6 µM (inactive) | 33.8 µM (inactive) | 35.7 µM (inactive) | 23.6 µM (inactive) |  |  |
| O=c1oc2c/c(=C\c3ccc([N+](=O)[O-])cc3)c(=O)c3cccc1c3-2 | > 100 µM (inactive) | > 100 | > 100 µM (inactive) | > 100 µM (inactive) | 35.2 µM (inactive) | > 100 µM (inactive) |  | > 100 µM (inactive) | 28.1 µM (inactive) | > 100 µM (inactive) | > 100 µM (inactive) | > 100 µM (inactive) | > 100 µM (inactive) | > 100 µM (inactive) | > 100 µM (inactive) | 22 µM (inactive) | 21.9 µM (inactive) | > 100 µM (inactive) | 38.6 µM (inactive) |  |
| CC(C)(C)C1CCC2c3c([nH]c4ccccc34)C3C(=O)N(c4ccc(C#N)cc4)C(=O)C3C2C1 (centres undefined) | 3.25 µM (inactive) | 12.1 | 3.78 µM (inactive) | 11.2 µM (inactive) | 13.2 µM (inactive) | 0.678 µM (active) | 20 µM (inactive) | 6.61 µM (inactive) |  | 3.66 µM (inactive) | 13.1 µM (inactive) | 12.9 µM (inactive) | 24.4 µM (inactive) | 9.59 µM (inactive) | 34.4 µM (inactive) |  | 20.3 µM (inactive) | 7.36 µM (inactive) | 15.7 µM (inactive) | 13.7 µM (inactive) |
| CS(=O)(=O)c1ccc(C(=O)O[C@@H]2C(=O)N3CC[C@H]4OC(O)[C@@H]2[C@H]43)cc1 (some centres undefined) | > 100 µM (inactive) | > 100 | > 100 µM (inactive) |  | > 100 µM (inactive) | > 100 µM (inactive) | > 100 µM (inactive) | > 100 µM (inactive) |  | > 100 µM (inactive) | > 100 µM (inactive) | > 100 µM (inactive) | > 100 µM (inactive) |  | > 100 µM (inactive) | 58.1 µM (inactive) | > 100 µM (inactive) | > 100 µM (inactive) | > 100 µM (inactive) | > 100 µM (inactive) |
| O=C(Nc1ccccc1)N(C1=NCC(CI)S1)c1ccc(F)cc1F (centres undefined) | 74.3 µM (inactive) | 25 | 29.2 µM (inactive) | > 100 µM (inactive) | 16 µM (inactive) | 21.6 µM (inactive) | 87.3 µM (inactive) | 50.6 µM (inactive) | 37.9 µM (inactive) | 67.1 µM (inactive) | > 100 µM (inactive) | 46 µM (inactive) | > 100 µM (inactive) | 46.7 µM (inactive) | > 100 µM (inactive) | > 100 µM (inactive) | 82.8 µM (inactive) | > 100 µM (inactive) | > 100 µM (inactive) |  |
| CCCCCCCCCCCCCCCC(=O)OCC1OC(OC)C2NP(=O)(N(CCCl)CCCl)OC1C2O (centres undefined) | 2.54 µM (inactive) | 3.14 | 17.1 µM (inactive) |  | 1.28 µM (inactive) | 0.0288 µM (active) | 10.9 µM (inactive) | 1.21 µM (inactive) | 0.916 µM (active) | 2.5 µM (inactive) | 8.3 µM (inactive) | 7.53 µM (inactive) | 11.5 µM (inactive) | 1.05 µM (active) | 2.61 µM (inactive) | 2.91 µM (inactive) | 10.9 µM (inactive) | 7.36 µM (inactive) | 1 µM (active) | 10.6 µM (inactive) |
| O=C1c2ccccc2-c2nc(-c3ccccc3)cc3c2c1nc1ccccc13 | 13.8 µM (inactive) | 11.2 | 13.2 µM (inactive) | 22.6 µM (inactive) | 1.77 µM (inactive) | 6.52 µM (inactive) | 16.6 µM (inactive) | 3.6 µM (inactive) |  | 4.08 µM (inactive) | 20 µM (inactive) | 2.67 µM (inactive) | 19.5 µM (inactive) | 12.9 µM (inactive) | 19.4 µM (inactive) |  | 15.3 µM (inactive) | 11.4 µM (inactive) | 16.7 µM (inactive) |  |
| COC(=O)[C@]12CC3C=CC1N(C3)C(CBr)c1c2n(S(=O)(=O)c2ccccc2)c2ccccc12 (some centres undefined) | > 100 µM (inactive) | 72.8 | 45.3 µM (inactive) | 39.9 µM (inactive) | 43.4 µM (inactive) |  | 41.7 µM (inactive) | 51.5 µM (inactive) | 27.9 µM (inactive) | 42.8 µM (inactive) | 79.4 µM (inactive) | > 100 µM (inactive) | > 100 µM (inactive) | > 100 µM (inactive) |  | 25.9 µM (inactive) | > 100 µM (inactive) | > 100 µM (inactive) | 92.3 µM (inactive) |  |
| O=C1NN=C2C=C(c3ccc(Cl)cc3)CC(c3cccc(Cl)c3)C12 (centres undefined) | 17.1 µM (inactive) | 13.9 | 21.9 µM (inactive) | 19.9 µM (inactive) | 18.5 µM (inactive) | 17.9 µM (inactive) | 20.4 µM (inactive) | 32.2 µM (inactive) | 15.8 µM (inactive) | 31.8 µM (inactive) | 19.7 µM (inactive) | 18.5 µM (inactive) | 25.1 µM (inactive) | 22.5 µM (inactive) | 15.1 µM (inactive) |  | 20.1 µM (inactive) | 19.3 µM (inactive) | 34.4 µM (inactive) |  |
| C=C1C(=O)OC2/C=C(/C)C3(O)OC(C)(CC(OC(=O)C(C)C)C12)CC3OC(C)=O (centres undefined) | 4.53 µM (inactive) | 4.45 | 4.55 µM (inactive) |  | 8.87 µM (inactive) | 4.36 µM (inactive) | 35.5 µM (inactive) | 3.34 µM (inactive) | 1.91 µM (inactive) | 13.7 µM (inactive) | 12 µM (inactive) | 6.31 µM (inactive) | 7.59 µM (inactive) | 4.9 µM (inactive) | 15.3 µM (inactive) | 47.5 µM (inactive) | 5.82 µM (inactive) | 6.17 µM (inactive) | 30.4 µM (inactive) | 3.96 µM (inactive) |
| COC(=O)[C@@H](NC1(c2ccccc2)c2ccccc2-c2ccccc21)[C@H](OC(=O)[C@H]1CCCN1S(=O)(=O)c1ccccc1)C(=O)OC | > 100 µM (inactive) | > 100 | > 100 µM (inactive) |  | > 100 µM (inactive) | > 100 µM (inactive) | > 100 µM (inactive) | > 100 µM (inactive) | 82.2 µM (inactive) | > 100 µM (inactive) | 39.8 µM (inactive) | > 100 µM (inactive) | 70.6 µM (inactive) | > 100 µM (inactive) | > 100 µM (inactive) | 63.2 µM (inactive) | > 100 µM (inactive) | > 100 µM (inactive) | > 100 µM (inactive) | > 100 µM (inactive) |
| Nc1nc(-c2ccccc2)cc(-c2ccc(F)cc2)c1-c1ccc(Cl)cc1 | > 100 µM (inactive) | > 100 | 13.2 µM (inactive) | 73.3 µM (inactive) | > 100 µM (inactive) | 5.57 µM (inactive) | > 100 µM (inactive) | > 100 µM (inactive) |  | > 100 µM (inactive) | > 100 µM (inactive) | > 100 µM (inactive) | > 100 µM (inactive) | > 100 µM (inactive) | > 100 µM (inactive) | > 100 µM (inactive) | > 100 µM (inactive) | > 100 µM (inactive) | 32.6 µM (inactive) |  |
| Cn1cc(NC(=O)Nc2cc(C(=O)Nc3cc(C(=O)Nc4ccc5cc(S(=O)(=O)O)cc(S(=O)(=O)O)c5c4)n(C)c3)n(C)c2)cc1C(=O)Nc1cc(C(=O)Nc2ccc3cc(S(=O)(=O)O)cc(S(=O)(=O)O)c3c2)n(C)c1 | > 100 µM (inactive) | > 100 | > 100 µM (inactive) | > 100 µM (inactive) | > 100 µM (inactive) | > 100 µM (inactive) | > 100 µM (inactive) | > 100 µM (inactive) | > 100 µM (inactive) | > 100 µM (inactive) |  | > 100 µM (inactive) | > 100 µM (inactive) | > 100 µM (inactive) | > 100 µM (inactive) | 82 µM (inactive) | 83 µM (inactive) | > 100 µM (inactive) | > 100 µM (inactive) |  |
| COC(=O)C(C)N(C)C(=O)[C@H](CC(N)=O)N(C)C(=O)[C@@H]1CCCN1C(=O)[C@H](C(C)C)N(C)C(=O)C(C(C)C)N(C)C(=O)[C@@H](NC(=O)OC(C)(C)C)C(C)C (some centres undefined) (Boc-V[ξNMeV][NMeV]P[NMeN][ξNMeA]-OMe) | > 50 µM (inactive) | > 100 | > 50 µM (inactive) |  | 23.9 µM (inactive) | 9.93 µM (inactive) | > 50 µM (inactive) | > 50 µM (inactive) | > 50 µM (inactive) | 11.4 µM (inactive) | > 50 µM (inactive) | 31.7 µM (inactive) | > 50 µM (inactive) | > 50 µM (inactive) | > 50 µM (inactive) | > 100 µM (inactive) | > 50 µM (inactive) | 24.7 µM (inactive) | > 50 µM (inactive) | > 50 µM (inactive) |
